The values below are quoted from earlier work in paper PMC10928227, “Assessing biologic/toxicologic effects of extractables from plastic contact materials for advanced therapy manufacturing using cell painting assay and cytotoxicity screening” (Scientific Reports, 2024).

Read-outs that look alike come from different tables or passages of the source.

The conditions of the data set: cited from earlier work; for Risk based on in vitro genotoxicity data from database (from QSAR-toolbox): not checked for in vivo relevance, ref QSAR Toolbox 4.5 database.
Where [1] appears, read: Salmonella typhimurium, Strain TA 97, in Vitro, Database: Bacterial mutagenicity ISSSTY, ref CCRIS database,Toxnet databases (Romualdo Benigni).
Where [2] appears, read: Salmonella typhimurium, Strain TA 98, in Vitro, Database: Bacterial mutagenicity ISSSTY, ref CCRIS database,Toxnet databases (Romualdo Benigni).
Setting [3] is: Salmonella typhimurium, Strain TA 100, in Vitro, Database: Bacterial mutagenicity ISSSTY, ref CCRIS database,Toxnet databases (Romualdo Benigni).
Where [4] appears, read: Salmonella typhimurium, Strain TA 102, in Vitro, Database: Bacterial mutagenicity ISSSTY, ref CCRIS database,Toxnet databases (Romualdo Benigni).
Setting [5] is: Salmonella typhimurium, Strain TA 1535, in Vitro, Database: Bacterial mutagenicity ISSSTY, ref CCRIS database,Toxnet databases (Romualdo Benigni).
[6] abbreviates: Salmonella typhimurium, Strain TA 1537, in Vitro, Database: Bacterial mutagenicity ISSSTY, ref CCRIS database,Toxnet databases (Romualdo Benigni).
The mark [7] stands for this setting: in Vitro, Salmonella typhimurium, No Strain Information, Database Genotoxicity OASIS, ref Journal of Medicinal Chemistry 48 (1), pp. 312-32, 25, Kazius J, McGuire R., Bursi R.

Take `Cc1ccc(S(N)(=O)=O)cc1` [70-55-3]: the “Gene mutation, Bacterial Reverse Mutation Assay (e.g. Ames Test)” value (“Gene mutation … (e.g. Ames Test)” below) is “Negative” (Salmonella typhimurium, No Strain Information, in Vitro, Database: Genotoxicity OASIS, ref NIHS Japan); “Negative” (Salmonella typhimurium, Strain TA 98, in Vitro, Database: Genotoxicity OASIS, ref https://doi.org/10.22427/NTP-DATA-022-00002-0001-000-7, National Institute of Environmental Health Sciences); “Negative” (Salmonella typhimurium, Strain TA 100, in Vitro, Database: Genotoxicity OASIS, ref https://doi.org/10.22427/NTP-DATA-022-00002-0001-000-7, National Institute of Environmental Health Sciences); “Negative” (Salmonella typhimurium, Strain TA 102, in Vitro, Database: Genotoxicity OASIS, ref https://doi.org/10.22427/NTP-DATA-022-00002-0001-000-7, National Institute of Environmental Health Sciences); “Negative” (Salmonella typhimurium, Strain TA 1535, in Vitro, OECD Guideline 471, Database: Genotoxicity OASIS, ref Japan Existing Chemical Data Base); “Negative” (in Vitro, E. coli WP2 uvrA, Database Genotoxicity OASIS, ref ECHA, Registration dossier). Besides, the “Gene mutation … (e.g. Ames Test)” value runs as follows: (in Vitro, Escherichia coli, Strain WP2 UvrA, Guidelines For Screening Mutagenicity Testing of Chemicals (Chemical Substances Control Law of Japan), Database Toxicity Japan MHLW, ref Japan Existing Chemical Data Base, http://dra4.nihs.go.jp/mhlw_data/jsp/SearchPageENG.jsp) “Negative”; (in Vitro, Salmonella typhimurium, Strain TA 97, Guidelines For Screening Mutagenicity Testing of Chemicals (Chemical Substances Control Law of Japan), Database Toxicity Japan MHLW, ref Japan Existing Chemical Data Base, http://dra4.nihs.go.jp/mhlw_data/jsp/SearchPageENG.jsp) “Negative”; (in Vitro, Salmonella typhimurium, Strain TA 100, Guidelines For Screening Mutagenicity Testing of Chemicals (Chemical Substances Control Law of Japan), Database Toxicity Japan MHLW, ref Japan Existing Chemical Data Base, http://dra4.nihs.go.jp/mhlw_data/jsp/SearchPageENG.jsp) “Negative”; (in Vitro, Salmonella typhimurium, Strain TA 1535, Guidelines For Screening Mutagenicity Testing of Chemicals (Chemical Substances Control Law of Japan), Database Toxicity Japan MHLW, ref Japan Existing Chemical Data Base, http://dra4.nihs.go.jp/mhlw_data/jsp/SearchPageENG.jsp) “Negative”; (in Vitro, Salmonella typhimurium, Strain TA 1535, OECD Guideline 471, Database Genotoxicity OASIS, ref Japan Existing Chemical Data Base) “Negative”; (in Vitro, Salmonella typhimurium, Strain TA 1537, Guidelines For Screening Mutagenicity Testing of Chemicals (Chemical Substances Control Law of Japan), Database Toxicity Japan MHLW, ref Japan Existing Chemical Data Base, http://dra4.nihs.go.jp/mhlw_data/jsp/SearchPageENG.jsp) “Negative”. In addition, where the note is “in Vitro, Salmonella typhimurium, Strain TA 1537, OECD Guideline 471, Database Genotoxicity OASIS, ref Japan Existing Chemical Data Base”, the “Gene mutation … (e.g. Ames Test)” value is recorded as “Negative”. For the same molecule, the “Chromosome aberration, in Vitro Mammalian Chromosome Aberration Test” value (from here on “Chromosome aberration”) (in Vitro, Chinese hamster, Chinese Hamster Lung Cells, Guidelines For Screening Mutagenicity Testing of Chemicals (Chemical Substances Control Law of Japan), Database Toxicity Japan MHLW, ref Japan Ministry of Health Labour and Welfare, http://dra4.nihs.go.jp/mhlw_data/jsp/SearchPageENG.jsp) is reported as “Negative”; the “Chromosome aberration” value (in Vitro, No Strain Information, Database Genotoxicity OASIS, ref NIHS Japan) is listed as “Negative”.

Turning to `CC(C)(C)c1ccc(O)c(C(C)(C)C)c1` [2,4-Di-tert-butylphenol], the “Risk based on in vitro genotoxicity data from database (from QSAR-toolbox)” value (“Risk based on in vitro genotoxicity data” below) is “Positive in vitro data”.

For `CCCC(C)=O` [107-87-9], the “Gene mutation … (e.g. Ames Test)” value (in Vitro, Salmonella typhimurium, No Strain Information, Database Genotoxicity OASIS, ref J. Chem. Inf. Model., 2009, 49 (9), pp 2077–2081, Hansen K. et al.) was “Negative”.

Take `CC(=O)c1ccccc1` [98-86-2]: the “Gene mutation … (e.g. Ames Test)” value under setting [1] is recorded as “Negative”; the “Gene mutation … (e.g. Ames Test)” value under setting [2] is recorded as “Negative”; the “Gene mutation … (e.g. Ames Test)” value under setting [3] is on record as “Negative”; the “Gene mutation … (e.g. Ames Test)” value under setting [4] is listed as “Negative”; the “Gene mutation … (e.g. Ames Test)” value under setting [5] was “Negative”; the “Gene mutation … (e.g. Ames Test)” value under setting [6] was “Negative”. In addition, the “Gene mutation … (e.g. Ames Test)” value is “Negative” under setting [7]; “Negative” (in Vitro, Salmonella typhimurium, Strain TA 97, Database Bacterial mutagenicity ISSSTY, ref CCRIS database,Toxnet databases, Romualdo Benigni, 02.5.2011); “Negative” (in Vitro, Salmonella typhimurium, Strain TA 97, Database Genotoxicity OASIS, ref FUJITA H. AND SASAKI M., KENKYU NENPO - TOKYO-TORITSU EISEI KENKYUSHO 38:423-430, 1987); “Negative” (in Vitro, Salmonella typhimurium, Strain TA 98, Database Bacterial mutagenicity ISSSTY, ref CCRIS database,Toxnet databases, Romualdo Benigni, 02.5.2011); “Negative” (in Vitro, Salmonella typhimurium, Strain TA 102, Database Genotoxicity OASIS, ref FUJITA H. AND SASAKI M., KENKYU NENPO - TOKYO-TORITSU EISEI KENKYUSHO 38:423-430, 1987).

For the molecule `OCc1ccccc1` [Benzylalcohol], the “Risk based on in vitro genotoxicity data” value is recorded as “Positive in vitro data”.

For the molecule `S=c1[nH]c2ccccc2s1` [149-30-4], the “Chromosome aberration” value (in Vitro, No Strain Information, Database Genotoxicity OASIS, ref Mutation Research 584 (2005) 1-256, Kirkland et al.) is reported as “Positive”. Further, the “Gene mutation, Mammalian Cell Gene Mutation Assay” value (in Vitro, T-lymphoma Cell Lines, Database Genotoxicity OASIS, ref Mutation Research 584 (2005) 1-256, Kirkland et al.) is “Positive”.

As to `O=C1CCCCCN1` [Caprolactam], the “Risk based on in vitro genotoxicity data” value is reported as “Positive in vitro data”.

Regarding `CC(=O)c1ccccc1` [Acetophenone], the “Risk based on in vitro genotoxicity data” value is listed as “Positive in vitro data”.

Turning to `OCC(O)CO` [56-81-5], the “Chromosome aberration” value was “Negative” (in Vitro, Chinese hamster, Chinese Hamster Lung (CHL), Database Genotoxicity OASIS, ref ECHA, Registration dossier) and “Negative” (in Vitro, Chinese hamster, Chinese Hamster Lung (CHL), Duration 24÷48 h, Database Genotoxicity OASIS, ref Sofuni, T., Ed. (1998). Data Book of Chromosomal Aberration Test In Vitro, Revised Edition).

As for `CC(C)(c1ccc(O)cc1)c1ccc(O)cc1` [Bisphenol A], the “Risk based on in vitro genotoxicity data” value is “Positive in vitro data”.

For `CCC(C)=O` [78-93-3], the “Gene mutation … (e.g. Ames Test)” value is recorded as “Negative” under setting [1]; “Negative” under setting [2]; “Negative” under setting [3]; “Negative” under setting [4]; “Negative” (Salmonella typhimurium, Strain TA 104, in Vitro, Database: Bacterial mutagenicity ISSSTY, ref CCRIS database,Toxnet databases (Romualdo Benigni)); “Negative” under setting [5]. Further, the “Gene mutation … (e.g. Ames Test)” value runs as follows: under setting [6], “Negative”; (Salmonella typhimurium, Strain TA 1538, in Vitro, Database: Bacterial mutagenicity ISSSTY, ref CCRIS database,Toxnet databases (Romualdo Benigni)) “Negative”; under setting [7], “Negative”; (in Vitro, Salmonella typhimurium, Strain TA 97, Database Genotoxicity OASIS, ref P&G) “Negative”; (in Vitro, Salmonella typhimurium, Strain TA 98, Database Genotoxicity OASIS, ref P&G) “Negative”; (in Vitro, Salmonella typhimurium, Strain TA 100, Database Genotoxicity OASIS, ref P&G) “Negative”. Besides, the “Gene mutation … (e.g. Ames Test)” value (in Vitro, Salmonella typhimurium, Strain TA 102, OECD Guideline 471, Database Genotoxicity OASIS, ref CCRIS database,Toxnet databases) was “Negative”; the “Gene mutation … (e.g. Ames Test)” value (in Vitro, Salmonella typhimurium, Strain TA 1535, Database Genotoxicity OASIS, ref P&G) was “Negative”; the “Gene mutation … (e.g. Ames Test)” value (in Vitro, Salmonella typhimurium, Strain TA 1537, Database Genotoxicity OASIS, ref P&G) was “Negative”; the “Gene mutation … (e.g. Ames Test)” value (in Vitro, Salmonella typhimurium, Strain TA 1538, Database Genotoxicity OASIS, ref P&G) is listed as “Negative”.

Consider `Cc1cc(C(C)(C)C)c(O)c(C(C)(C)C)c1` [Butylated hydroxytoluene], for which the “Risk based on in vitro genotoxicity data” value is “Positive in vitro data”.
